Data as given in PMC12670426 (Journal of Medicinal Chemistry, 2025).

Columns and labels:
[1] = Microsomal stability assay, mouse liver microsomes; format: in vitro ADME; conditions: pooled liver microsomes, pH 7.4, mouse liver microsomes 0.5 mg/mL, NADPH
Description: (§1) Microsomal stability was determined using 0.5 mg/mL of pooled human, mouse, or rat liver microsomes (Thermo Fisher Scientific) in 90 mM TRIS-Cl buffer (pH 7.4) containing 2 mM NADPH and 2 mM MgCl2. Test compounds (10 μM) were added, and the resulting mixture was incubated at 37 °C for 10, 60, 120, and 180 min. The reactions were terminated by the addition of four volumes of ice-cold methanol, followed by vigorous mixing. The samples were left at −20 °C for 30 min and then stored at 4 °C overnight. The next day, samples were centrifuged, and supernatants were diluted with four volumes of 30% methanol in water. Zero time points were prepared by adding ice-cold methanol to the mixture of compounds and cofactors prior to the addition of microsomes. The samples were then analyzed using the Echo-MS system (SCIEX) with MRM transition monitoring, except for compound 3af, which was analyzed by LC–MS/MS as described in the plasma stability assay.

[2] = Plasma protein binding assay (rapid equilibrium dialysis), rat plasma; format: in vitro ADME; conditions: fraction bound, read-out: plasma protein binding Fb rat (converted)
Description: Test compound (10 μM) was incubated at 37 °C for 4 h with mouse, rat, or human plasma (Biowest) in the donor well of a rapid equilibrium dialysis plate (Thermo Fisher Scientific). PBS was placed in the acceptor well. To stop the assay, samples were collected from both wells, and an equal volume of plasma was added to the PBS sample, and vice versa. Proteins were then precipitated by adding three volumes of ice-cold methanol. Samples were mixed gently, kept at −20 °C for 30 min, and then stored at 4 °C overnight. The next day, the samples were centrifuged, and the supernatants were diluted with four volumes of 30% methanol in water. The samples were then analyzed using the Echo-MS system (SCIEX) with MRM transition monitoring, except for compound 3af, which was analyzed by LC–MS/MS as described in the plasma stability assay.

Cytotoxicity assay, LX2 = format: cell-based; conditions: human, LX2 cells, viability dye, flow cytometry
Description: (§2) To evaluate in vitro cytotoxicity and support its potential application in inflammatory and fibrotic disease models, the following panel of cell lines, representing the relevant biological systems, was used: HEK293, HepG2, THP1, Jurkat E6.1, and LX2. HEK293, HepG2, and Jurkat E6.1 cells were seeded at 400,000 cells/mL, THP1 cells at 500,000 cells/mL, and LX2 cells at 200,000 cells/mL in 96-well plates (cell culture-treated, VWR) in 100 μL/well. Cells were treated with the tested compounds in a serial dilution (300, 100, 33.3, 11.1, and 3.7 μM) for 24 h. Untreated cells served as negative controls to establish the baseline viability threshold. Cell viability was assessed using a viability dye (Zombie Violet Fixable Viability Kit, BioLegend) following the manufacturer’s instructions and analyzed by flow cytometry (see below).
(§3) Cells or beads from screening assays prepared for flow cytometry were analyzed by the CytoFlex S instrument (Beckman Coulter). Data acquisition was performed using CytExpert software (v2.5, Beckman Coulter). Debris was excluded by forward and side scatter gating, followed by doublet exclusion. Data were analyzed using FlowJo software (v10, BD Biosciences).

[3] = Cytotoxicity assay, Jurkat E6.1; format: cell-based; conditions: human, Jurkat E6.1 cells, viability dye, flow cytometry
Description: as §2, §3

[4] = target: T1, intracellular Gal-3 in THP1 cells (Homo sapiens, UniProt P17931); experiment: Intracellular Gal-3 target engagement in THP1 cells (flow cytometry, MFI); format: cell-based; conditions: 2 h
T1 construct: Untreated cells served as negative and baseline controls representing maximum intracellular Gal-3 levels; endogenous in cells; host or cells: THP1 (monocyte-like or PMA-differentiated macrophage-like)
Description: THP1 cells were used to assess the binding of the tested compounds to Gal-3. Cells were either maintained in suspension as undifferentiated monocyte-like cells or differentiated into macrophage-like cells by overnight treatment with phorbol 12-myristate 13-acetate (PMA, Sigma-Aldrich) at a final concentration of 10 ng/mL. […] Untreated cells served as negative and baseline controls representing maximum intracellular Gal-3 levels. Cells were then harvested and intracellularly stained either with galectin-3 monoclonal antibody eF660 (Invitrogen, Thermo Fisher Scientific) or a relevant isotype antibody (Invitrogen, Thermo Fisher Scientific) for flow cytometric analyses (see below). A dose-dependent decrease in Gal-3 signal upon compound treatment was used to assess intracellular target engagement expressed as median fluorescent intensity (MFI).
as §3

[5] = Microsomal stability assay, human liver microsomes; format: in vitro ADME; conditions: pooled liver microsomes, pH 7.4, human liver microsomes 0.5 mg/mL, NADPH
Description: as §1

[6] = Plasma stability assay, human plasma; format: in vitro ADME; conditions: pooled plasma, 37 °C
Description: Test compounds (10 μM) were incubated with mouse, rat, or human pooled plasma from 50 donors (Biowest) at 37 °C for 20, 60, and 120 min. Reactions were terminated by adding four volumes of ice-cold methanol, followed by vigorous mixing. Samples were kept at −20 °C for 30 min and then stored at 4 °C overnight. The next day, samples were centrifuged, and supernatants were diluted with four volumes of 30% methanol in water. Zero time points were prepared by adding ice-cold methanol to the compound prior to the addition of plasma. Samples were then analyzed on an Echo MS system (SCIEX) using multiple reaction monitoring (MRM). The only exception was compound 3af, which was analyzed by LC–MS/MS (SCIEX 6500 triple quadrupole) due to its weak ionization in Echo-MS.

[7] = system: TGFβ-stimulated LX2 hepatic stellate cells; experiment: Antifibrotic efficacy: profibrotic gene expression in TGFβ-stimulated LX2 hepatic stellate cells (RT-qPCR); format: cell-based, human; conditions: TGFβ-stimulated LX2, 48 h, RT-qPCR normalized to ACTB
Description: LX2 cells were then stimulated with transforming growth factor-β1 (TGFβ1; PeproTech, Thermo Fisher Scientific) at 5 ng/mL to induce profibrotic signaling. […] After 48 h of treatment, cells were harvested into 100 μL RA1 buffer, and total RNA was then isolated using the NucleoSpin 96 RNA Kit (Macherey-Nagel, Düren, Germany) and reverse-transcribed into cDNA using the LunaScript RT SuperMix Kit (New England Biolabs, Ipswich, MA, USA). Quantitative real-time PCR (RT-qPCR) was used to determine mRNA expression levels of selected profibrotic markers: αSMA (ACTA2), collagen α-2(I) chain (COL1A2), and fibronectin 1 (FN1), and the housekeeping gene β-actin (ACTB). Amplification was carried out using Luna Universal qPCR Master Mix (New England Biolabs) and primer pairs for individual genes as follows: ACTA2: forward primer: [NT], reverse primer: [NT]; COL1A2: forward primer: [NT], reverse primer: [NT]; FN1: forward primer: [NT], reverse primer: [NT]; ACTB: forward primer: [NT], reverse primer: [NT] (Eurofins Genomics). Data were normalized to ACTB expression and analyzed using the ΔΔCt method.

T1 sequence (P17931 whole entry): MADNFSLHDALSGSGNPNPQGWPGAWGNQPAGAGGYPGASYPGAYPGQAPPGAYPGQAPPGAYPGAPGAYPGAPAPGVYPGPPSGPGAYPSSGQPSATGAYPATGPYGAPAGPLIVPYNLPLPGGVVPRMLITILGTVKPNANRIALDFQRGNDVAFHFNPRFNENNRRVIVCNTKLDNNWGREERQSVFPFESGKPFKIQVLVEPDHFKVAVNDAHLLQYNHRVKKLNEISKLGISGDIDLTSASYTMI

`CC(=O)N(c1cc(C(=O)O)cc2[nH]ccc12)[C@@H]1O[C@H](CO)[C@@H](S[C@@H]2O[C@H](CO)[C@H](O)[C@H](n3cc(-c4cccc(F)c4)nn3)[C@H]2O)[C@H](O)[C@H]1O` [Compound 11, N-[4-S-(3-Deoxy-3-(4-(3-fluorophenyl)-1H-1,2,3-triazol-1-yl)-β-D-galactopyranosyl)-4-thio-β-D-glucopyranosyl]-N-(6-carboxy-1H-indol-4-yl)acetamide] gave a microsomal CLint at 10 μM [1] of under 2 µL/min/mg, a fraction unbound at 4 h, 10 μM [2] of 0.1 and a CC50 at 24 h (Cytotoxicity assay, LX2) of over 300 µM. For the same compound, the CC50 at 24 h [3] was over 300 µM, the “intracellular Gal-3 signal (MFI), macrophage-like THP1 cells” value ([4]; (+)PMA differentiated THP1, 3.7–300 μM) was “concentration-dependent reduction” and the “intracellular Gal-3 signal (MFI), monocyte-like THP1 cells” value ([4]; (−)PMA undifferentiated THP1, 3.7–300 μM) was “concentration-dependent reduction”. The microsomal CLint at 10 μM [5] was under 2 µL/min/mg, the remaining at 2 h, 10 μM [6] was 110 ± 6% and the “ACTA2 mRNA expression” value [7] was “dose-dependent downregulation”. For the same compound, the “COL1A2 mRNA expression” value [7] was “dose-dependent downregulation” and the “FN1 mRNA expression” value [7] was “dose-dependent downregulation”.
